The values that follow come from US20100184094A1, “USE OF MDCK CELLS IN THE EVALUATION OF CHOLESTEROL MODULATORS” (priority 2007, published 2010).

The target in one experiment is dog NPC1L1 (Canis lupus familiaris, UniProt A0A8I3RZG1). Description: [3H]AS binding to dog NPC1L1 transiently expressed in TsA201 cells. The conditions noted are these: for IC50: 4.65 nM [3H]AS, 4 h, 37° C., read-out: IC50 inhibition of [3H]AS binding; for Ki: dog NPC1L1/TsA201 cells, read-out: Ki (competition with [3H]AS). The method, then: (§1) rNPC1L1/HEK293 and TsA201 cells were seeded at a density of 10,000 cells per well in 96-well poly-D-lysine coated plates and cells were allowed to attach for approximately 18 h at 37° C. TsA201 cells were subsequently transfected with dog NPC1L1/pcDNA5/FRT according to the manufacturer's instructions (Roche) and incubated for 3 days at 37° C. MDCKII-derived, LLC-PKI, HepG2, or CaCo-2 cells were seeded at a density of 25,000 cells per well in 96-well tissue culture treated plates, and cells were allowed to attach and differentiate for approximately 72 h at 37° C., except for CaCo-2 cells where differentiation took approximately 14 days at 37° C. […] Duplicate samples were averaged for each experimental point. […] Dissociation kinetics were determined by addition of 100 μM EZE-gluc, and incubating for different periods of time. Nonspecific binding was defined in the presence of 100 μM EZE-gluc. At the end of the incubation period, cells were washed twice with 200 μl of pre-warmed DMEM to separate bound from free ligand, 1% SDS was added to the wells followed by 5 ml of Scintillant, and radioactivity associated with cells was determined using a β-counter. […] Thereafter, plates were placed on ice and cells were washed twice with ice-cold PBS, followed by ice-cold acid wash with DMEM, pH 3.5, for 1, 5 or 15 minutes. […] For Transwell experiments, MDCKII cells were seeded at 200,000 cells/well in a 24-well plate and incubated for 3 days at 37° C. […] Thereafter, both apical and basolateral compartments were washed three times with PBS, and the Transwell filter was cut out and its associated radioactivity determined using afi-counter. Data from saturation, competition and ligand dissociation experiments were analyzed as described in the literature; see, Priest, et al., 2004 Biochemistry 43:9866-9876; Knaus et al., 1995 Biochemistry 34:13627-13634. The association rate, k1, was determined by employing the pseudo-first-order rate equation k1=kobs([LR]e/[L][LR]max)) where [LR]max is the concentration of the complex at equilibrium, [L] is the concentration of ligand, [LR]max is the total receptor concentration, kobs is the slope of the pseudo-first order plot, ln([LR]e/([LR]e−[LR]t)) versus time, and [LR]t is the receptor-ligand complex at one given time point t.
Sequence of dog NPC1L1 (A0A8I3RZG1 entry or part of it): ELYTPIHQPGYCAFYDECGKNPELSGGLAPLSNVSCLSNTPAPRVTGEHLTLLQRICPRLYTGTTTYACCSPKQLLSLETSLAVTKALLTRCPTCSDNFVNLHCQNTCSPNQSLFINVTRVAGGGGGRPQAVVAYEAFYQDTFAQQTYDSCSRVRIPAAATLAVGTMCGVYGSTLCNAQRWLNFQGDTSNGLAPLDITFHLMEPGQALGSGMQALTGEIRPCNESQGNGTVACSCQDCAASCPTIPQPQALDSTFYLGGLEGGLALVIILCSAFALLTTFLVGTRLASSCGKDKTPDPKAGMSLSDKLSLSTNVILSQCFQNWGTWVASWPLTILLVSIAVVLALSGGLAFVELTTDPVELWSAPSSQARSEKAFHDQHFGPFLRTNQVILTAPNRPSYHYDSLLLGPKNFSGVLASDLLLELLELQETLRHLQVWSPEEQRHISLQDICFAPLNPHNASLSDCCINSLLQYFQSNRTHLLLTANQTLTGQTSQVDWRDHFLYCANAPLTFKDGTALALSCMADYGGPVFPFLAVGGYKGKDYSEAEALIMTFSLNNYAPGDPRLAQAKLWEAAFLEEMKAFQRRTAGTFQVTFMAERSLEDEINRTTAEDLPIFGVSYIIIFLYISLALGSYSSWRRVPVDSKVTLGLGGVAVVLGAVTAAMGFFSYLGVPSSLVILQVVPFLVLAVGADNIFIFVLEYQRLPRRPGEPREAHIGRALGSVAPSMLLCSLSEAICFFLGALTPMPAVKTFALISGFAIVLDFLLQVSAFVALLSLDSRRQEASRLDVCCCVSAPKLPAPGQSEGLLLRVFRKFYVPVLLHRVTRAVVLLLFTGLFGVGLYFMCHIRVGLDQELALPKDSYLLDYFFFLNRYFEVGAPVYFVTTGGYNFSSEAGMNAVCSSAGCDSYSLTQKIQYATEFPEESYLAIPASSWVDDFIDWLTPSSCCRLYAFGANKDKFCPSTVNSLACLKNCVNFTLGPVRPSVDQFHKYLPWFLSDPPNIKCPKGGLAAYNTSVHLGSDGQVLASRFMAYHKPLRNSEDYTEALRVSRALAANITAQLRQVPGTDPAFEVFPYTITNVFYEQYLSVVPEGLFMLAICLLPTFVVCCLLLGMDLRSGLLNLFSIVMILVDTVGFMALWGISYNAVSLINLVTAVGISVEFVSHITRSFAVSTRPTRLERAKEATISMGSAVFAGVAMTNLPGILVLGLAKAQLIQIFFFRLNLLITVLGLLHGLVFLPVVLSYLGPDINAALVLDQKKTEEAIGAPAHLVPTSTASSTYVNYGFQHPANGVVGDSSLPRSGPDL
To further validate this statement, cloned dog NPC1L1 was transiently expressed in TsA201 cells and binding of [^3]AS to these cells was then characterized (FIG. 5 and Table 1).

In experiment [1] the target is dog NPC1L1 endogenously expressed in MDCKII cells (Canis lupus familiaris, UniProt A0A8I3RZG1). The experiment is described as follows: [3H]AS binding to MDCKII cells (saturation, kinetics, competition, acid wash). Particulars: for IC50: 5.49 nM [3H]AS, 4 h, 37° C., read-out: IC50 inhibition of [3H]AS binding; for Ki: MDCKII cells. On the procedure: as §1
Sequence of dog NPC1L1 endogenously expressed in MDCKII cells (A0A8I3RZG1 entry or part of it): as above
The target of the next experiment is T1, human NPC1L1 (Homo sapiens, UniProt Q9UHC9).
T1 construct: expressed in transfected cells
T1 sequence (Q9UHC9 22-1359): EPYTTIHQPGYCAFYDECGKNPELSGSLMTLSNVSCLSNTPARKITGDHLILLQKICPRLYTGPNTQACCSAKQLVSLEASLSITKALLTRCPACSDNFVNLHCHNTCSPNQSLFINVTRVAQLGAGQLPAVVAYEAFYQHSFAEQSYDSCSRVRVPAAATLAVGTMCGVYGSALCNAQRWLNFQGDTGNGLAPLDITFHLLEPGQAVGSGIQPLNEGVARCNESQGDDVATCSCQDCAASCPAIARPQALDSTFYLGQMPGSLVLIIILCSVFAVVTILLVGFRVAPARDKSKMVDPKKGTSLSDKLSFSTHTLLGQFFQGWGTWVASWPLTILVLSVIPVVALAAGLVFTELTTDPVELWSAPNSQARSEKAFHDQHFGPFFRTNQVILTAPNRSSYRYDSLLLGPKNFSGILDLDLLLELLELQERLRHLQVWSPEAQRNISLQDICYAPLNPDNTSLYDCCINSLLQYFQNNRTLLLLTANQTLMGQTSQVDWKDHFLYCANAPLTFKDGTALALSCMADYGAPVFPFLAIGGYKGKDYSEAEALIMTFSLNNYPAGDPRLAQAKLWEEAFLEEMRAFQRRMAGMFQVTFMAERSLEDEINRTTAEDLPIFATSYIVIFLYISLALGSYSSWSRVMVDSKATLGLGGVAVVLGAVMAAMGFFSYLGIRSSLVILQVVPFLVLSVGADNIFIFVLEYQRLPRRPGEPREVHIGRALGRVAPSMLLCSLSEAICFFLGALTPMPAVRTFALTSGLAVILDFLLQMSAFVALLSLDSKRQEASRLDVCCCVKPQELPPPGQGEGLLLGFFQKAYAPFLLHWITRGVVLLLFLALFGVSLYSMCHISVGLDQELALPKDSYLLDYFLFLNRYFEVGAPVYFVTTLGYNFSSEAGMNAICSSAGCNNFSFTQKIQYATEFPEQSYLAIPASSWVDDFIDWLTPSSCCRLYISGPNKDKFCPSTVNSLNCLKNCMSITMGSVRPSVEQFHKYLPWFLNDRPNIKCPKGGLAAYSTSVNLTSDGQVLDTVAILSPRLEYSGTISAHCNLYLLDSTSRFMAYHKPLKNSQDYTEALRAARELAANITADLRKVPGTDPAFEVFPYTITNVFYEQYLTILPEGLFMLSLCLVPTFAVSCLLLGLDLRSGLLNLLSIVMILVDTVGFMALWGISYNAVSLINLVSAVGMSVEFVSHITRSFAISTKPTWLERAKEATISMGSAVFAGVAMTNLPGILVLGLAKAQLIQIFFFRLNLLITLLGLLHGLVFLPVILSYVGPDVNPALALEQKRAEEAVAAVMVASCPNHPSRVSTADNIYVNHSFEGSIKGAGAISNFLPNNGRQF
The experiment is described as follows: [3H]AS binding to hNPC1L1/MDCKII-Flp cells. Particulars: FIG. 7D, read-out: Ki inhibition of [3H]AS binding. The method, then: as §1
To validate MDCKII cells as an appropriate surrogate system for monitoring NPC1L1-dependent processes, we evaluated their ability to perform EZE-sensitive cholesterol flux using a similar protocol to that recently reported. This assay makes use of the ability of βmCD to deplete membrane-bound cholesterol. […]
To further characterize the [^3H] cholesterol influx process into MDCK cells, the potency of EZE-like compound PS for inhibiting [^3H] cholesterol uptake was determined.

By IC50 is commonly meant the concentration that gives 50% inhibition. For orientation: Ki means the dissociation constant of the complex between target and ligand, obtained from inhibition or displacement.

Structures are written as SMILES.

On to `O=C1[C@H](CC[C@H](O)c2ccc(F)cc2)[C@@H](c2ccc(O)cc2)N1c1ccc(F)cc1` [EZE, Ezetimibe], for which the results for the IC50 (on dog NPC1L1; in experiment [1]) were 111 nM and 126 nM, respectively. Further, the Ki at dog NPC1L1 was determined as 21.5 ± 7.56 nM; in experiment [1] it was 14 ± 4.11 nM; on human NPC1L1, 1300 nM.

For the compound `COC(=O)[C@H]1O[C@@H](Oc2ccc([C@@H]3[C@@H](CC[C@H](O)c4ccc(F)cc4)C(=O)N3c3ccc(C#CCNS(C)(=O)=O)cc3)cc2)[C@H](O)[C@@H](O)[C@@H]1O` [PS, 4-[(2S,3R)-3-[(3S)-3-(4-fluorophenyl)-3-hydroxypropyl]-1-(4-{3-[(methylsulfonyl)amino]prop-1-yn-1-yl}phenyl)-4-oxoazetidin-2-yl]phenyl methyl-β-D-glucopyranosiduronate], the figures for the IC50 (on dog NPC1L1; in experiment [1]) were 3.73 nM and 3.02 nM, respectively. In addition, the inhibitory constant (Ki) was 0.97 ± 0.08 nM at dog NPC1L1, 0.33 ± 0.05 nM in experiment [1] and 5 nM at human NPC1L1.

As to `O=C(O)[C@H]1O[C@@H](Oc2ccc([C@@H]3[C@@H](CC[C@H](O)c4ccc(F)cc4)C(=O)N3c3ccc(F)cc3)cc2)[C@H](O)[C@@H](O)[C@@H]1O` [EZE-gluc, ezetimibe glucuronide], the half-maximal inhibitory concentration (IC50) on dog NPC1L1 came out at 27 nM; in experiment [1], 24 nM. The Ki came out at 5.51 ± 1.52 nM at dog NPC1L1, 3.51 ± 0.89 nM in experiment [1] and 209 nM on human NPC1L1. The “fold weaker than AS and PS as inhibitor of [3H]AS binding” value in experiment [1] (MDCK cells) was around 10 fold.
